Assays:
[1] = system: MDA-MB-468; experiment: drug sensitivity score (DSS), CellTiter-Blue viability (DSS (AUC-based score)); higher = stronger viability inhibition; extreme values may be limits of the assay; settings: incubation time: 72 h
Experimental: (§1)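 DSRT with the CellTiter-Blue (resazurin reduction) viability readout, fluorescence 560/590 nm, 72 h incubation. Plates were normalised to DMSO and benzethonium chloride controls. DSS is computed from the area under the fitted dose-response curve (5 or 9 concentrations).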

[2] = system: HCC1143; experiment: as above; settings: incubation time: 72 h
Experimental: as §1

[3] = system: CAL-51; experiment: as above; settings: incubation time: 72 h
Experimental: as §1

[4] = system: SK-BR-3; experiment: as above; settings: incubation time: 72 h
Experimental: as §1

[5] = system: HDQ-P1; experiment: as above; settings: incubation time: 72 h
Experimental: as §1

[6] = system: CAL-148; experiment: as above; settings: incubation time: 72 h
Experimental: as §1

[7] = system: CAL-120; experiment: as above; settings: incubation time: 72 h
Experimental: as §1

[8] = system: CAL-85-1; experiment: as above; settings: incubation time: 72 h
Experimental: as §1

[9] = system: BT-474; experiment: normalised viability (% of control), CellTiter-Blue; higher = more viable cells (about 100 = DMSO control); settings: incubation time: 72 h
How it was run: (§2)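 After 72 h on compound-loaded 384-well plates, breast cancer cell lines received 2.5 µl CellTiter-Blue reagent for 2 h at 37 °C. Fluorescence at 560/590 nm was scaled per plate so that vehicle was 100 and a positive kill control was 0. The value stands for normalised viability at a single listed concentration of the series.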

[10] = system: MDA-MB-468; experiment: as above; settings: incubation time: 72 h
How it was run: as §2

[11] = system: BT-549; experiment: as above; settings: incubation time: 72 h
How it was run: as §2

[12] = system: Hs578T; experiment: as above; settings: incubation time: 72 h
How it was run: as §2

[13] = system: MDA-MB-453; experiment: as above; settings: incubation time: 72 h
How it was run: as §2

[14] = system: MFM-223; experiment: as above; settings: incubation time: 72 h
How it was run: as §2

[15] = system: DU-4475; experiment: as above; settings: incubation time: 72 h
How it was run: as §2

[16] = system: SK-BR-3; experiment: as above; settings: incubation time: 72 h
How it was run: as §2

[17] = system: HCC1599; experiment: as above; settings: incubation time: 72 h
How it was run: as §2

[18] = system: MDA-MB-231; experiment: as above; settings: incubation time: 72 h
How it was run: as §2

[19] = system: HDQ-P1; experiment: as above; settings: incubation time: 72 h
How it was run: as §2

[20] = system: CAL-148; experiment: as above; settings: incubation time: 72 h
How it was run: as §2

[21] = system: HCC1937; experiment: as above; settings: incubation time: 72 h
How it was run: as §2

[22] = system: CAL-85-1; experiment: as above; settings: incubation time: 72 h
How it was run: as §2

[23] = system: CAL-51; settings: 72 h
How it was run: (§3)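 Viability of breast cancer cell lines was measured with CellTiter-Blue after 72 h of incubation on compound-loaded 384-well plates. Cells were seeded in 20 µl onto compound dissolved in 5 µl medium, and 2.5 µl reagent was added for 2 h at 37 °C before reading at 560/590 nm. EC50 was fitted from percent-inhibition dose-response data censored at the highest concentration, normalised per plate to vehicle and a positive kill control, with zero drug sensitivity score rows dropped.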

[24] = system: CAL-148; settings: 72 h
How it was run: as §3

CN1CCC(COc2cnc(-c3cccc(Cn4nc(-c5cccc(C#N)c5)ccc4=O)c3)nc2)CC1
Settings	EC50, CellTiter-Blue viability [µM]	drug sensitivity score
[1]	–	5.78
[2]	–	0
[3]	–	3.38
[4]	–	6.8
[5]	–	2.71
[6]	–	2.07
[7]	–	3.44
[8]	–	3.23
[23]	4.99	–
[24]	5.8	–

normalised viability [%]
Settings	3 nM	10 nM	30 nM	100 nM	1000 nM	10000 nM
[9]	–	93.6	–	–	105	9.72
[10]	–	92.8	–	–	92.9	5.99
[11]	–	98.9	–	–	90	5.83
[12]	–	105	–	–	91	59.8
[13]	84.5	–	91.2	93.8	–	–
[14]	–	108	–	–	119	22.5
[15]	94.1	–	89.7	99.2	–	–
[16]	–	93.1	–	–	89.2	2.76
[17]	–	108	–	–	120	71.9
[18]	–	79	–	–	81.3	1.93
[19]	82	–	91.8	70.5	–	–
[20]	85.8	–	83.2	94.2	–	–
[21]	–	79.1	–	–	96.1	10.6
[22]	110	–	96.5	121	–	–

CN(C)C/C=C/C(=O)Nc1cc2c(Nc3ccc(F)c(Cl)c3)ncnc2cc1O[C@H]1CCOC1 [Afatinib]
Settings	EC50, CellTiter-Blue viability [µM]	drug sensitivity score
[1]	–	13
[2]	–	0
[3]	–	1.9
[4]	–	31.5
[5]	–	15.3
[6]	–	5.66
[7]	–	4.96
[8]	–	13.1
[23]	4.75	–
[24]	0.065	–

normalised viability [%]
Settings	3 nM	10 nM	30 nM	100 nM	1000 nM	10000 nM
[9]	–	72.1	–	–	33.8	16
[10]	–	99.1	–	–	56.9	11.5
[11]	–	87.1	–	–	92.9	11.7
[12]	–	98	–	–	95.7	14.4
[13]	104	–	67	46.6	–	–
[14]	–	88.7	–	–	83.4	25.1
[15]	95.1	–	83.2	85.8	–	–
[16]	–	52.1	–	–	19.3	12.3
[17]	–	97.4	–	–	77.6	79.5
[18]	–	89.1	–	–	74.2	7.48
[19]	92.5	–	76.9	77.1	–	–
[20]	83.2	–	72.9	72.5	–	–
[21]	–	83.2	–	–	67.5	13.9
[22]	83.2	–	57.4	54.2	–	–

CN1CC[C@H](c2c(O)cc(O)c3c(=O)cc(-c4ccccc4Cl)oc23)[C@H](O)C1 [Alvocidib]
Settings	EC50, CellTiter-Blue viability [µM]	drug sensitivity score
[1]	–	17.6
[2]	–	17.9
[3]	–	19.9
[4]	–	23.9
[5]	–	19
[6]	–	20.3
[7]	–	17.8
[8]	–	20.8
[23]	0.185	–
[24]	0.125	–

normalised viability [%]
Settings	3 nM	10 nM	30 nM	100 nM	1000 nM	10000 nM
[9]	–	102	–	–	23	26.6
[10]	–	108	–	–	10.4	5.45
[11]	–	92	–	–	9	7.78
[12]	–	90.8	–	–	4.18	2.76
[13]	104	–	91.4	73	–	–
[14]	–	87.3	–	–	8.79	8.79
[15]	90.7	–	79.2	78.6	–	–
[16]	–	88.5	–	–	4.29	5.99
[17]	–	124	–	–	19.6	21.9
[18]	–	88.2	–	–	7.07	6.37
[19]	88.6	–	87.6	84.2	–	–
[20]	86	–	89.6	70.8	–	–
[21]	–	79.5	–	–	15	18.7
[22]	82.7	–	79.9	76.6	–	–
